Reference: patent US4569907A, “Thiopeptolide substrates for vertebrate collagenase” (Monsanto Company, priority 1984, dated 1986)
Non-standard residues stand in square brackets, D forms with d. Residues, ends and D or L forms follow the SMILES beside them. *: point of attachment. Dnp = O=[N+]([O-])c1ccc(*)c([N+](=O)[O-])c1

How the values were obtained:
Format in all cases: biochemical
[1] = molecular target: T1, Collagenase from culture media of normal human skin fibroblasts (Homo sapiens, UniProt P03956); experiment: Spectrophotometric assay for collagenase: hydrolysis of thiopeptolide substrates with 4,4'-dithiodipyridine or Ellman's reagent; conditions: for Relative Rate (of hydrolysis): Table I Comparison of Substrate, spectrophotometric assay, pH 6.5-7.0, initial rates
T1 construct: endogenous in cells; host or cells: normal human skin fibroblasts (culture media)
T1 sequence (P03956 100-469): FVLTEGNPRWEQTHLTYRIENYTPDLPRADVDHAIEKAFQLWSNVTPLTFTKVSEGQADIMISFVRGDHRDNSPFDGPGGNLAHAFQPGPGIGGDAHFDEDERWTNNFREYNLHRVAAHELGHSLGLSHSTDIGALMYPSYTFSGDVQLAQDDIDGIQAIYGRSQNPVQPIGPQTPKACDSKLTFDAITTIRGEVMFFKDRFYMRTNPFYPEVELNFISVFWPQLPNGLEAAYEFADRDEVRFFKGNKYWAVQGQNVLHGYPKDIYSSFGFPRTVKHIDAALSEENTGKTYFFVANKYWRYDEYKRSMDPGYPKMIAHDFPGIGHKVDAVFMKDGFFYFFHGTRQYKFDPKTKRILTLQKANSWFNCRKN
Description: Collagenase was prepared from culture media of normal human skin fibroblasts substantially according to the procedure of Stricklin et al., Biochem. 16 1607 (1977). The enzyme (23 μg/ml in 0.5 M tris buffer [tris(hydroxymethyl) amino methane], 0.01 M CaCl2, pH 7.5) was activated by incubating 10 μl samples with one μl of trypsin (10 mg/ml in 1 mM HCl) for twenty minutes at room temperature followed by addition of 20 μl of soybean trypsin inhibitor (5 mg/ml in 0.05 M tris buffer, 0.01 M CaCl2, pH 7.5).
The activated enzyme was diluted 100 to 2000 fold for use with each of the following substrate thiopeptolides:
(§1) The spectrophotometric assay was carried out at substrate concentrations of from 0.01 mM to 5 mM in 0.05 M HEPES buffer (N-2-hydroxyethylpiperizine-N'-2-ethanesulfonic acid) with 0.01 M CaCl2 at a pH of 6.5-7.0 and containing 0.5 mM to 1.0 mM 4,4'-dithiodipyridine (or Ellman's Reagent). The total reaction volume was 250 μl including 10 to 100 μl of the diluted activated enzyme. The reaction solutions were placed in 10 mm pathlength, self-masking microcuvettes and the hydrolysis followed using a Gilford model 250 spectrophotometer at 324 λ(410 λ for Ellman's Reagent) and equipped with a Gilford model 6051 recorder. The initial rates were limited to the first 5% of reaction and were corrected for non-enzymatic hydrolysis, which never exceeded 25% of the total reaction at pH 6.5-7.0. The 4,4'dithiodipyridine (or Ellman's Reagent) at 0.5 mM was in large excess under the initial rate assay conditions and was not rate limiting.
(§2) The following Table I sets forth the relative rates of hydrolysis in the above spectrophotometric assay using ther above thiopeptolides as substrates in comparison to the rates of hydrolysis assayed by High Performance Liquid Chromatography (HPLC) of two commercially available substrates for collagenase and two other substrates described in copending application Ser. No. 450,318, cited hereinbefore.

[2] = test system: Kallikrein; experiment: Enzyme selectivity for thiopeptolide, spectrophotometric hydrolysis; conditions: Table II Enzyme Selectivity
Description: as §1
(§3) The ability of five proteolytic enzymes other than collagenase to cleave the synthetic substrate Ac-Pro-Leu-Gly-S-Leu-Leu-Gly-OC2 H5 was tested by hydrolysis and following spectrophotometrically as in Example 14. The following Table II sets forth the relative selectivity of these enzymes in comparison to vertebrate collagenase.

[3] = molecular target: T2, Trypsin (Bos taurus, UniProt P00760); experiment: as above; conditions: Table II Enzyme Selectivity
T2 sequence (P00760 24-246): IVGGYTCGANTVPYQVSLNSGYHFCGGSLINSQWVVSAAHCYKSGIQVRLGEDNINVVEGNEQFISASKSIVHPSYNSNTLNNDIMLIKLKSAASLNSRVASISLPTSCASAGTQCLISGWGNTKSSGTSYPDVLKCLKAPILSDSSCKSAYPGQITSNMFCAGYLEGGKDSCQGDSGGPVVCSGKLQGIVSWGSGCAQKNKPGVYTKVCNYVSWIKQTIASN
Description: as §1, §3

[4] = test system: Elastase; experiment: as above; conditions: Table II Enzyme Selectivity
Description: as §1, §3

[5] = molecular target: T3, Carboxypeptidase Y (Saccharomyces cerevisiae, UniProt P00729); experiment: as above; conditions: Table II Enzyme Selectivity
T3 sequence (P00729 112-532): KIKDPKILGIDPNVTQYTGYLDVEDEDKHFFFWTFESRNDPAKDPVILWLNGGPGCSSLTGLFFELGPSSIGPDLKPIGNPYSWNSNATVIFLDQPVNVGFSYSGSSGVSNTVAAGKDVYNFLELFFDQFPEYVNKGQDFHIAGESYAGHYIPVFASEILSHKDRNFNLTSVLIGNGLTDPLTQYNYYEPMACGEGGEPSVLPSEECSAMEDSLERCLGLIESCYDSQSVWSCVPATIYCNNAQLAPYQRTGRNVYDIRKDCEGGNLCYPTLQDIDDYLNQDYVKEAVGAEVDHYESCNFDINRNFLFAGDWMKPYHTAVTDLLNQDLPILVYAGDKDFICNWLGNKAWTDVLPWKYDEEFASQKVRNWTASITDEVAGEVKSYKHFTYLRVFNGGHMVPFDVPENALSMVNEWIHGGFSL
Description: as §1, §3

[6] = molecular target: α-Chymotrypsin (Bos taurus, UniProt P00766); experiment: as above; conditions: Table II Enzyme Selectivity
Description: as §1, §3

[7] = molecular target: T4, collagenase (Homo sapiens, UniProt P03956); experiment: HPLC assay of substrate hydrolysis by collagenase (comparison substrates without chromophores); conditions: Table I Comparison of Substrate; assayed by HPLC
T4 construct: endogenous in cells; host or cells: normal human skin fibroblasts (culture media)
T4 sequence (P03956 100-469): T1 sequence (P03956 100-469)
Description: as §2

[8] = molecular target: T5, vertebrate collagenase (Homo sapiens, UniProt P03956); experiment: Inhibition of vertebrate collagenase (I50, median inhibitory concentration)
T5 sequence (P03956 100-469): T1 sequence (P03956 100-469)

Molecule	Relative Rate (of hydrolysis) [1]	Relative Rate (of hydrolysis) [7]	also measured
CCOC(=O)CNC(=O)[C@H](C)NC(=O)[C@H](CC(C)C)SC(=O)CNC(=O)[C@H](C)NC(=O)[C@@H]1CCCN1C(C)=O [Ac-Pro-Ala-Gly-S-Leu-Ala-Gly-OC2 H5]	950		
CCOC(=O)CNC(=O)[C@H](CC(C)C)NC(=O)[C@H](CC(C)C)SC(=O)CNC(=O)[C@H](CC(C)C)NC(=O)[C@@H]1CCCN1C(C)=O [Ac-Pro-Leu-Gly-S-Leu-Leu-Gly-OC2 H5]	8800		Relative Rate ([1]; Table II Enzyme Selectivity, Vertebrate Collagenase, same as in Example 14): 260; Relative Rate [2]: 4.3; Relative Rate [3]: 0.07; Relative Rate [4]: 12; Relative Rate [5]: 0.03; Relative Rate [6]: 2.0
CCOC(=O)CNC(=O)[C@H](C)NC(=O)[C@H](CC(C)C)NC(=O)CNC(=O)[C@H](CC(C)C)NC(=O)[C@@H]1CCCN1C(C)=O [Ac--Pro--Leu--Gly--Leu--Ala--Gly--OC2 H5] (Ac-PLGLAG-OEt)		110	
DNP-Pro-Gln-Gly-Ile-Ala-Gly-Gln-D-Arg-OH (Dnp-PQGIAGQ[dR]-OH; SMILES CC[C@H](C)[C@H](NC(=O)CNC(=O)[C@H](CCC(N)=O)NC(=O)[C@@H]1CCCN1c1ccc([N+](=O)[O-])cc1[N+](=O)[O-])C(=O)N[C@@H](C)C(=O)NCC(=O)N[C@@H](CCC(N)=O)C(=O)N[C@H](CCCNC(=N)N)C(=O)O) [commercially available synthetic collagenase substrate, Peninsula Laboratories; DNP=Dinitrophenyl]		5	
DNP-Pro-Leu-Gly-Ile-Ala-Gly-Arg-NH2 (Dnp-PLGIAGR-NH2; SMILES CC[C@H](C)[C@H](NC(=O)CNC(=O)[C@H](CC(C)C)NC(=O)[C@@H]1CCCN1c1ccc([N+](=O)[O-])cc1[N+](=O)[O-])C(=O)N[C@@H](C)C(=O)NCC(=O)N[C@@H](CCCNC(=N)N)C(N)=O) [commercially available synthetic collagenase substrate, Peninsula Laboratories; DNP=Dinitrophenyl]		25	
CCOC(=O)CNC(=O)[C@H](CC(C)C)NC(=O)[C@@H](S)CC(C)C [HS-Leu-Leu-Gly-OC2 H5]			IC50 [8]: 1000 nM
CCOC(=O)CNC(=O)[C@H](CC(C)C)NC(=O)[C@H](CC(C)C)NC(=O)CNC(=O)[C@H](CC(C)C)NC(=O)[C@@H]1CCCN1C(C)=O [Ac--Pro--Leu--Gly--Leu--Leu--Gly--OC2 H5] (Ac-PLGLLG-OEt)		250	
CCOC(=O)CNC(=O)[C@H](Cc1ccccc1)NC(=O)[C@H](CC(C)C)SC(=O)CNC(=O)[C@H](C)NC(=O)[C@@H]1CCCN1C(C)=O [Ac-Pro-Ala-Gly-S-Leu-Phe-Gly-OC2 H5]	2800		
CCOC(=O)CNC(=O)[C@H](Cc1ccccc1)NC(=O)[C@H](CC(C)C)SC(=O)CNC(=O)[C@H](CC(C)C)NC(=O)[C@@H]1CCCN1C(C)=O [Ac-Pro-Leu-Gly-S-Leu-Phe-Gly-OC2 H5]	5900		
